In patent US20250340847A1, “CELL CULTURE SYSTEM, USES THEREOF AND CELLS DERIVED THEREFROM” (UNIVERSITY OF PITTSBURGH-OF THE COMMONWEALTH SYSTEM OF …, priority 2022, published 2025):

Tests used:
[1] = target: CXCR4 (Homo sapiens, UniProt P61073); settings: 1p M AMD3465 beginning at day 0 of iDiscoid culture; day 5
Experimental: (§1) Signaling Pathway Inhibition. BMP4 signaling was inhibited via application of 3 μM Dorsomorphin into the normal media at day 3 of iDiscoid culture. NODAL signaling was inhibited via application of 10 μM SB431542 beginning at day 2 of iDiscoid culture. CXCR4 signaling was inhibited via application of 1p M AMD3465 beginning at day 0 of iDiscoid culture.

[2] = system: iGATA6 cells; test: Dox induction of GATA6 gene circuit in iGATA6 hiPSCs; type: cell-based, human; settings: after treatment with Dox
Experimental: Generation of iDiscoid. The GATA6-engineered hiPSCs were seeded at a ratio of 4:1 with rtTA expressing hiPSCs either containing or lacking an mKate reporter gene at a total density of 25,000 cells per cm^2 in mTeSR-1 supplemented with […] Y-27632. The next day, the medium was changed to mTeSR-1 with […] doxycycline to induce expression of the GATA6 transgene and replaced daily for up to 5 days.
Time lapse Imaging. iGATA6 cells were seeded at 25,000 cells per cm^2 in a Cellstar 24-well tissue culture treated plate coated […], then induced with 1,000 ng ml^−1 Dox. After induction, the cells were placed under an Incucyte S3 live cell imaging platform at 37C and 5% CO2. Images were taken every 30 min for 3 days.

[3] = system: NODAL signaling; test: NODAL signaling inhibition in iDiscoid culture, immunofluorescence; type: cell-based, human; settings: 10 μM SB431542 beginning at day 2 of iDiscoid culture
Experimental: as §1
Staining on glass coverslips. Cells were grown on Matrigel-coated 8 mm diameter circular glass coverslips or on Mattek 35 mm coverslip bottom dishes. Cultures were fixed for 10 minutes in 4% paraformaldehyde (Electron Microscopy Sciences) at room temperature. For toluidine blue staining in FIG. 12B, cells were fixed for 1 hour in 2.5% glutaraldehyde in 0.01M PBS, pH 7.4, at room temperature. Coverslips were then washed three times with PBS followed by 15 minutes permeabilization with 0.2% Triton X-100 in PBS. Subsequently the coverslips were washed three times in washing buffer (0.05% Tween-20 in PBS) for 5 minutes and blocked for 20 minutes in […] wash buffer plus 5% normal donkey serum (Jackson ImmunoResearch Laboratories). The primary antibodies were diluted in 5% normal donkey serum in PBS and incubated with the tissues […] at room temperature followed by three washes in wash buffer for 5 minutes each. The secondary antibodies were diluted in 5% normal donkey serum in PBS and incubated with the tissues 1 hour at room temperature followed by three washes in wash buffer for 5 minutes each. Afterwards, the 8 mm coverslips were mounted on microscopy glass slides using ProLong Glass Antifade (Life Technologies), cured overnight at room temperature and then sealed with nail polish. Coverslips in Mattek dishes were stored in PBS at 4° C. for 3D imaging prior to mounting.
Image Acquisition and Processing. Images were acquired using the EVOS M700 automated scanning microscope, Leica SP8 confocal microscope, or Nikon A1 Confocal microscope and processed using ImageJ software (NIH). Any contrast adjustments were made in individual channels and applied evenly across the whole image in that channel. Contrast and color balance for color images was applied evenly across the whole image. 3D reconstructions were generated using the Nikon A1 confocal microscope to generate z-stacks spanning ˜100 um deep into the tissues and using ImageJ or Imaris (Bitplane) to construct a 3D volume from the stacks.

[4] = system: NODAL signaling; test: Day 4 scRNAseq of iDiscoid after SB431542 application at day 2; type: cell-based, human
[5] = target: T1, BMP4 (Homo sapiens, UniProt P12644); settings: cited from earlier work
T1 sequence (P12644 293-408): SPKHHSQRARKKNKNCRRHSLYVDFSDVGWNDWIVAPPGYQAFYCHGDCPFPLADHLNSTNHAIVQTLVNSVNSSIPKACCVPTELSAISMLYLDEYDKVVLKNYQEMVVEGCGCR

[6] = target: T2, NODAL (Homo sapiens, UniProt Q96S42); settings: cited from earlier work
T2 sequence (Q96S42 238-347): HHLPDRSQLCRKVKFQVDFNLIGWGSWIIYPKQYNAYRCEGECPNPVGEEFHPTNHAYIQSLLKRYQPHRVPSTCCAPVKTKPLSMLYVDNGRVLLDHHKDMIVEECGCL

[7] = target: T3, BMP2 (Homo sapiens, UniProt P12643); settings: cited from earlier work
T3 sequence (P12643 283-396): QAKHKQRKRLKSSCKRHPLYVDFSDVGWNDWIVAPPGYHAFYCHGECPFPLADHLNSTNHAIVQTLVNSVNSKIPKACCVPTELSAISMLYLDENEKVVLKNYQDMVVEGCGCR

[8] = day 4, SB431542 applied at day 2

Sequence of CXCR4 (P61073 whole entry): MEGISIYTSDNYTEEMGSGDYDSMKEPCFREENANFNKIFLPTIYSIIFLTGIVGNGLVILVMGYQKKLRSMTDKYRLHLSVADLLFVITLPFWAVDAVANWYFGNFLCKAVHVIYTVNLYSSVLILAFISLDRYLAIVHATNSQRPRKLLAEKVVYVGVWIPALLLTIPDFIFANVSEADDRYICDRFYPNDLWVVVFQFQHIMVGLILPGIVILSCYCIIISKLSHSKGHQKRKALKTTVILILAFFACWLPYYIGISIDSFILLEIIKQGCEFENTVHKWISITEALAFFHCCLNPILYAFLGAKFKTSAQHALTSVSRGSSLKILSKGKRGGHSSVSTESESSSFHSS

c1ccc(CNCc2ccc(CN3CCCNCCNCCCNCC3)cc2)nc1 [AMD3465]
upward migration and contiguous iGATA6 membrane formation [1]: substantially inhibits

C[C@H]1c2cccc(O)c2C(=O)C2=C(O)[C@]3(O)C(=O)C(C(N)=O)=C(O)[C@@H](N(C)C)[C@@H]3[C@@H](O)[C@@H]21 [Dox, Doxycycline]
EGFP expression in iGATA6 cells [2]: upregulate | pluripotency marker NANOG in iGATA6 cells [2]: loss

NC(=O)c1ccc(-c2nc(-c3ccc4c(c3)OCO4)c(-c3ccccn3)[nH]2)cc1 [SB431542]
ISL1-expressing cells within iDiscoids / ISL1 expression [3]: lost | cavity formation / cavity morphology [3]: maintained | expression of NANOG within the WT clusters [3]: lost | ISL1-expressing cells within iDiscoids / ISL1 expression ([3]; listed as SB431542): substantial elimination | cavity formation / cavity morphology ([3]; listed as SB431542): preserved | expression of NANOG within the WT clusters ([3]; listed as SB431562): substantially decreased | system state after addition to the culture media ([4]; SB431542 added to the media): acquire and maintain a state similar to early human and primate amnion | NANOG expression within the WT (scRNAseq) [4, 8]: lost | pluripotency markers SOX2 and OCT4 within the WT (scRNAseq) [4, 8]: retained | expression of the amnion marker ISL1 (scRNAseq) ([4]; day 4, SB431542 applied at day 2, alongside CDX2, GATA3, AP-2γ): present in cluster 2

B1: human CER1: human Cerberus ortholog, cerberus 1 (CER1) polypeptide (protein, UniProt O95813 18-267, looked up)
Cerberus: TRHQDGRQNQSSLSPVLLPRNQRELPTGNHEEAEEKPDLFVAVPHLVATSPAGEGQRQREKMLSRFGRFWKKPEREMHPSRDSDSEPFPPGTQSLIQPIDGMKMEKSPLREEAKKFWHHFMFRKTPASQGVILPIKSHEVHWETCRTVPFSQTITHEGCEKVVVQNNLCFGKCGSVHFPGAAQHSHTSCSHCLPAKFTTMHLPLNCTELSSVIKVVMLVEECQCKVKTEHEDGHILHAGSQDSFIPGVSA
affinity for BMP4 [5]: minimal affinity | affinity for NODAL [6]: high affinity | affinity for BMP2 [7]: minimal affinity
